Laboratory results from patent US20130172271A1, “Pharmaceutical Spray Drying” (priority 2012, published 2013).
Where a name gives a salt, the structure may show the parent alone.

Tests used:
[1] = Stability testing of spray dried vancomycin batch stored at 25° C./60% RH, 30° C./60% RH and 40° C./75% RH; assay type: physicochemical; conditions: Initial
Method: (§1) Batches for stability testing were made using the spray dried formulation vancomycin HCl (15% by weight), PEG-400 (3% by weight), mannitol (3% by weight) in WFI, with the API sourced from Abbott Laboratories (North Chicago, Ill.). Spray dried batches were stored at 25° C./60% Relative Humidity (RH), 30° C./60% RH, and 40° C./75% RH for three months. The stability data on moisture by Karl Fischer, pH (of the reconstituted solution), reconstitution time and chromatographic purity are presented in Table 7. The chromatographic purity was examined using the analytical HPLC method described in the current USP (United States Pharmacopeia) monograph for vancomycin. The test results for the API lot used to make the spray dried product were also listed for comparison.
The chromatographic purity of vancomycin B for all samples tested in this study were within USP specifications. All samples were stored at the accelerated conditions of 40° C./75% RH for 3 months and met USP criterion for vancomycin B by chromatographic purity (NLT 80% vancomycin B).

[2] = Chromatographic purity / impurities of spray dried vancomycin powders (Vancomycin B); assay type: physicochemical
Method: as §1
Three vancomycin formulations were prepared in WFI or citrate buffer. The solutions were spray dried as described above. Resultant powders were tested along with the vancomycin HCl API for impurities, reconstitution time and moisture as shown in Table 8.

Row | Structure (SMILES) | Vancomycin B [1] [%] | N-Demethylvancomycin ([2]; Table 8) [%] | Vancomycin B ([2]; Table 8) [%] | Other ([2]; Table 8, other impurities) [%]
1 | CN[C@H](CC(C)C)C(=O)N[C@H]1C(=O)N[C@@H](CC(N)=O)C(=O)N[C@H]2C(=O)N[C@H]3C(=O)N[C@H](C(=O)N[C@H](C(=O)O)c4cc(O)cc(O)c4-c4cc3ccc4O)[C@H](O)c3ccc(c(Cl)c3)Oc3cc2cc(c3O[C@@H]2O[C@H](CO)[C@@H](O)[C@H](O)[C@H]2O[C@H]2C[C@](C)(N)[C@H](O)[C@H](C)O2)Oc2ccc(cc2Cl)[C@H]1O [API Lot 09097619, vancomycin HCl] | 91.9 | – | – | –
2 | CN[C@H](CC(C)C)C(=O)N[C@H]1C(=O)N[C@@H](CC(N)=O)C(=O)N[C@H]2C(=O)N[C@H]3C(=O)N[C@H](C(=O)N[C@H](C(=O)O)c4cc(O)cc(O)c4-c4cc3ccc4O)[C@H](O)c3ccc(c(Cl)c3)Oc3cc2cc(c3O[C@@H]2O[C@H](CO)[C@@H](O)[C@H](O)[C@H]2O[C@H]2C[C@](C)(N)[C@H](O)[C@H](C)O2)Oc2ccc(cc2Cl)[C@H]1O [API, vancomycin HCl] | – | 0.6 | 94.9 | 4.5
